Key:
NSC-34 cells = test: Cell death, PI staining and flow cytometry, NSC-34; format: cell-based, mouse; conditions: 5 h, serum-free medium, 37°C
Method: (§1) NSC-34 cells, a mouse motor neuron-like hybrid cell line, the A549 human lung adenocarcinoma and U-87MG human glioblastoma cell lines were incubated with the (1-26)N-Ter-Antp, D-(15-26)N-Ter-Antp, (1-20)N-Ter-Antp, (5-20)N-Ter-Antp, or (10-20)N-Ter-Antp peptides in the appropriate serum-free growth medium for 5 h at 37°C. Cells were harvested, and analyzed for cell death using propidium iodide (PI) staining and flow cytometry. For XTT, the CellTiter 96 AQueous one-solution cell proliferation assay was used to follow cell viability as described previously ([Leyton-Jaimes et al., 2016]).
(§2) NSC-34 (A), U-87MG (B), or A549 (C) cells were incubated with the indicated concentrations of (1-26)N-Ter-Antp (∙), D-(15-26) (19-26)N-Ter-Antp (▲), (1-20)N-Ter-Antp (∘), (5-20)N-Ter-Antp (□) or (10-20)N-Ter-Antp (◆) peptide for 5 h. Cell death was analyzed using PI staining and flow cytometry. […] Cell viability analysis was performed with the CellTiter 96 AQueous one-solution cell proliferation assay with ELISA at 490 nm. […] The significance of quantitative analysis of triplicates of different biological repeats (n = 3) was performed by Student’s t-test; ^∗∗P < 0.01. […] Twenty-four hours post-transfection, the cells were incubated for 5 h with (10-20)N-Ter-Antp peptide (20 μM) and then analyzed for apoptosis using acridine orange and ethidium bromide staining, as described previously ([McGahon et al., 1995]). Fluorescence microscopy images were analyzed and about 100 to 300 cells were counted for each treatment in representative microscopic fields. The significance of quantitative analysis of triplicates of different biological repeats (n = 3) was performed by one-way Anova; ^∗∗P < 0.01.

U-87MG cells = test: Cell death, PI staining and flow cytometry, U-87MG; format: cell-based, human; conditions: 5 h, serum-free medium, 37°C
Method: as §1, §2

A549 cells = test: Cell death, PI staining and flow cytometry, A549; format: cell-based, human; conditions: 5 h, serum-free medium, 37°C
Method: as §1, §2

[1] = tested on: NSC-34 cells transfected to express human mutant SOD1^G93A; test: Rescue of mutant SOD1^G93A toxicity, cell viability (XTT / CellTiter 96 AQueous); format: cell-based, mouse; conditions: NSC-34 cells expressing SOD1^G93A, increasing peptide concentrations, 5 h, XTT assay; n = 3
Method: as §1, §2
Cell viability was quantified using the XTT assay and apoptosis using acridine orange and ethidium bromide staining. […] Importantly, this effect was observed using the three non-cell death-inducing VDAC1-derived N-terminal peptides, i.e., the (1-20)-N-Ter-Antp, (5-20)-N-Ter-Antp and (10-20)-N-Ter-Antp peptides.

[2] = tested on: SOD1^G93A-expressing mESC-derived MNs; test: Neurite outgrowth of mESC-derived motor neurons; format: cell-based, mouse; conditions: 10 μM, first 24 h; mean ± SEM n = 3, P < 0.05
Method: (§3) This cell line carries green fluorescent protein (GFP) under the control of the promoter for the motor neuron (MN)-specific transcription factor HB9 (HB9:GFP cells) ([Di Giorgio et al., 2007]). We used the SOD1^G93A mESC line to derive GFP^+ MNs.
(§4) Motor neuron differentiation was induced as described previously with some modifications ([Wichterle et al., 2002]). Cells were cultured in ADFNB medium composed of advanced D-MEM/F12:Neurobasal (1:1), 0.1 mM 2-mercaptoethanol, and GlutaMAX supplement, B27 supplement, and N2 supplement all from Invitrogen, to form embryoid bodies (EBs), and supplemented with 0.1 μM of retinoic acid (RA, Sigma), as well as 0.5 μM of sonic hedgehog (Shh) agonist Ag1.3 (Curis) every second day.
For an in vitro differentiation assay, EBs were enzymatically dissociated after 7 days in culture with TrypLE Express (Gibco) and seeded on 0.01% poly-l-ornithine (Sigma) pre-coated coverslips followed by laminin (10 μg/ml, Sigma). […]
SOD1^G93A-expressing mESC-derived MNs were incubated with the indicated concentrations of (1-20)N-Ter-Antp peptide for 1–4 days following initiation of final differentiation. […] GFP fluorescence indicates the expression of the motor neuron-specific transcription factor HB9. […] (E) Quantification of MNs survival. For all assays, results are expressed as the mean ± SEM (n = 3). ^*P < 0.05.

[3] = tested on: SOD1^G93A-expressing mESC-derived MNs; test: Survival of mESC-derived motor neurons; format: cell-based, mouse
Method: as §3, §4
For an in vitro differentiation assay, EBs were enzymatically dissociated after 7 days in culture with TrypLE Express (Gibco) and seeded on 0.01% poly-l-ornithine (Sigma) pre-coated coverslips followed by laminin (10 μg/ml, Sigma). Cells (5 × 10^4) were seeded on coverslip in 24-well plates with ADFNB cell medium supplemented with of Ciliary neurotrophic factor (10 ng/ml, CNTF) and Glial cell-derived neurotrophic factor (GDNF; Miltenyi Biotec). During plating, 1-20N-Ter-Antp VDAC1-peptide was added to the cultures. Half of the medium was replaced with fresh medium every second day and at the indicated time points. The cultures were fixed in 4% paraformaldehyde in PBS.
Stereological estimation of neurite lengths to evaluate neurite outgrowth in cultured cells was carried out as described previously ([Ronn et al., 2000]). The total neuritic length per cell was estimated by counting the number of GFP^+ soma and neurite intersections with test lines of an unbiased counting frame superimposed on images of cell cultures obtained using a 20× objective (NA 0.75) of a Nikon Eclipse E800 epifluorescence microscope equipped with a Nikon DXM1200F CCD camera. The absolute length, L, of neurites per cell was subsequently estimated from the number of neurite intersections, I, per cell by means of the equation L = (πd/2)I describing the relationship between the number of neurite intersections and the vertical distance, d, between the test lines used.
SOD1^G93A-expressing mESC-derived MNs were incubated with the indicated concentrations of (1-20)N-Ter-Antp peptide for 1–4 days following initiation of final differentiation. […] Scale bar, 100 μm. […] GFP fluorescence indicates the expression of the motor neuron-specific transcription factor HB9. Gross cellular morphology of surviving MNs remained unaffected by the (1-20)N-Ter-Antp peptide. Scale bar, 25 μm. (E) Quantification of MNs survival. For all assays, results are expressed as the mean ± SEM (n = 3). ^*P < 0.05.

For “1-MAVPPTYADLGKSARDVFTK-20-RQIKIWFQNRRMKWKK [(1-20)-N-Ter-Antp, like (1-26)-N-Ter-Antp but shortened by six amino acids at the C-terminus]”, the “Cell death induction in NSC-34 cells” value (NSC-34 cells) was “could not induce cell death”, the “Cell death induction in U-87MG cells” value (U-87MG cells) was “could not induce cell death” and the “Cell death induction in A549 cells” value (A549 cells) was “could not induce cell death”. For the same substance, the “Effect on SOD1^G93A toxicity (cell viability)” value [1] was “reduced the toxic effect of SOD1^G93A in a concentration-dependent manner”, the MN neurite outgrowth [2] was “significantly increased MN neurite outgrowth” and the “improvement of survival of SOD1^G93A-expressing MNs (fold)” value ([3]; 10 μM, 96 h) was “twofold”. For the same substance, the “number of surviving MNs over the course of final differentiation” value ([3]; 10 μM, 96 h, n = 3, P < 0.05) was “significantly increased the number of surviving MNs”, the “number of MNs present in the culture” value ([3]; 5 and 10 μM, 24 h after initiation of differentiation, n = 3, P < 0.05) was “significantly increased the number of MNs present in the culture” and the “optimal peptide concentration for neurite outgrowth and survival” value ([3]; SOD1^G93A-expressing mESC-derived MNs) was 10 µM.
